Measurements taken from US4011390A, “Semi-synthetic aminocyclitol aminoglycoside antibiotics and methods for the preparation thereof” (Schering-Plough Corporation, priority 1974, dated 1977).
Like-named read-outs stand apart in the source and are kept apart here.

What was measured:
Type in all cases: cell-based
[1] = system: Providence 164; test: Disc test, Bauer-Kirby technique with 10 Mcg. discs; conditions: strain 164
Text: (§1) Disc Test Results (Replicate Tests) With The Mutamicins, Sisomicin and
(§2) Bauer-Kirby Technique^1 With 10 Mcg. Discs
(§3) ^1 Bauer, Kirby, Sherris and Turck, American Journal of Clinical

[2] = system: Staphylococcus aureus; test: as above; conditions: Staphylococcus aureus
Text: as §1, §2, §3

[3] = system: Pseudomonas aeruginosa; test: as above; conditions: Pseudomonas aeruginosa
Text: as §1, §2, §3

[4] = system: Proteus rettgeri; test: as above; conditions: Providencia rettgeri
Text: as §1, §2, §3

[5] = system: Salmonella typhimurium; test: as above; conditions: Salmonella enterica, Group B
Text: as §1, §2, §3

[6] = system: Proteus airabilis; test: as above; conditions: strain Harding
Text: as §1, §2, §3

[7] = system: Klebsiella pneumoniae; test: as above; conditions: Klebsiella pneumoniae
Text: as §1, §2, §3

[8] = system: Bacillus subtilis; test: as above; conditions: Bacillus subtilis, ATCC6633, strain ATCC 6633
Text: as §1, §2, §3

[9] = system: Streptococcus pyogenes; test: as above; conditions: Streptococcus pyogenes
Text: as §1, §2, §3

[10] = system: Escherichia coli; test: as above; conditions: Escherichia coli, read-out: Zone Size
Text: as §1, §2, §3

[11] = system: Providence; test: Activity against resistant strains; conditions: gentamicin, sisomicin, tobramycin resistant Providence
Text: (§4) In many instances, bacterial resistance is related to the organism's ability to inactivate the antibacterial agent via enzymatic (biochemical) means. Some species inactivate aminoglycosides antibiotics by acetylating the antibacterial agent, others by phosphorylation and still others by adenylylating. Some strains have several different inactivating capabilities. Further, the inactivation reactions occur at a specific site or sites on the antibacterial agent. We have shown by the compounds of this invention that alteration of sites on the antibiotic molecule not directly involved in inactivation processes can nevertheless frustrate these inactivation processes. […] The tables illustrate that the mutamicins include compounds which are active against strains having different mechanisms of inactivation of gentamicin, sisomicin, kanamycin, neomycin and torbramycin. For example, some mutamicins are effective against strains of E. coli which contain adenylylating R factors such as E. coli W677/R55 and LA290/R55. These E. coli strains are resistant to gentamicin, sisomicin and torbramycin. Some are also effective against gentamicin, tobramycin and kanamycin resistant adenylylating strains of Klebsiella pneumoniae and also kanamycin, neomycin phosphorylating strains of E. coli and Klebsiella pneumoniae. Further, some mutamicins are effective against gentamicin and sisomicin resistant strains of Pseudomonas aeruginosa and gentamicin, sisomicin, tobramycin resistant Providence which is sensitive to kanamycin. Thus, the mutamicins afford a means for combatting strains of bacteria which have already developed a variety of mechanisms for resisting the action of many of the antibiotics known in the art or currently in commercial use.

[12] = system: Klebsiella pneumoniae; test: Activity against resistant strains; conditions: gentamicin, tobramycin and kanamycin resistant adenylylating strains
Text: as §4

[13] = system: E. coli; test: Activity against resistant strains; conditions: E. coli W677/R55 and LA290/R55
Text: as §4

[14] = ATCC10536, strain ATCC 10536, 10 Mcg. discs
[15] = strain St. Michael 1574-1, 10 Mcg. discs
[16] = strain Swidinsky 4195, 10 Mcg. discs

Row | SMILES | zone of inhibition at 10 µg/disc [1] [mm] | zone of inhibition at 10 µg/disc ([2]; ATCC6538P, strain ATCC 6538P) [mm] | zone of inhibition at 10 µg/disc ([2]; strain 59N) [mm] | zone of inhibition at 10 µg/disc ([2]; strain Wood) [mm] | zone of inhibition at 10 µg/disc ([2]; strain Ziegler) [mm] | zone of inhibition at 10 µg/disc ([3]; strain Capetown 18) [mm] | zone of inhibition at 10 µg/disc ([3]; strain D-2) [mm] | zone of inhibition at 10 µg/disc ([3]; strain St. Michael 413) [mm] | zone of inhibition at 10 µg/disc ([3]; strain St. Michael 836) [mm] | zone of inhibition at 10 µg/disc ([3]; strain St. Michael 1262) [mm] | zone of inhibition at 10 µg/disc ([3]; strain St. Michael 1395) [mm] | zone of inhibition at 10 µg/disc ([3]; strain Stone 20) [mm] | zone of inhibition at 10 µg/disc ([3]; strain Stone 39) [mm] | zone of inhibition at 10 µg/disc ([3]; strain Stone 130) [mm] | zone of inhibition at 10 µg/disc ([3]; strain Stone 138) [mm] | zone of inhibition at 10 µg/disc [4] [mm] | zone of inhibition at 10 µg/disc [5] [mm] | zone of inhibition at 10 µg/disc [6] [mm] | zone of inhibition at 10 µg/disc ([7]; strain Ad 17) [mm] | zone of inhibition at 10 µg/disc ([7]; strain Ad 18) [mm] | other results
1 | CN[C@@H]1[C@@H](O)[C@@H](O[C@@H]2C[C@H](O[C@H]3OC(CN)=CC[C@H]3N)[C@@H](N)C[C@H]2N)OC[C@]1(C)O [Mutamicin 2] | 25 | 27 | 29 | 29 | 28 | 22 | 26 | 27 | 28 | 27 | 28 | 33 | 27 | 25 | 23 | 24 | 27 | 26 | 23 | 25 | zone of inhibition at 10 µg/disc ([2]; strain 1118): 14 mm; zone of inhibition at 10 µg/disc ([2]; strain Grey): 16 mm; zone of inhibition at 10 µg/disc ([3]; strain St. Michael 762): 26 mm; zone of inhibition at 10 µg/disc ([7]; strain Georgetown 3020): 21 mm; zone of inhibition at 10 µg/disc ([7]; strain Georgetown 3694): 22 mm; zone of inhibition at 10 µg/disc [8]: 33 mm; zone of inhibition at 10 µg/disc ([9]; strain B-Cruz): 17 mm; zone of inhibition at 10 µg/disc ([9]; strain C): 15 mm; zone of inhibition at 10 µg/disc [10, 14]: 28 mm; zone of inhibition at 10 µg/disc ([10]; strain 589, 10 Mcg. discs): 24 mm; zone of inhibition at 10 µg/disc ([10]; strain JR66, 10 Mcg. discs): 26 mm; zone of inhibition at 10 µg/disc ([10]; strain JR88, 10 Mcg. discs): 22 mm; zone of inhibition at 10 µg/disc ([10]; strain JR90, 10 Mcg. discs): 25 mm; zone of inhibition at 10 µg/disc ([10]; strain LA290/R55, 10 Mcg. discs): 21 mm; zone of inhibition at 10 µg/disc [10, 15]: 27 mm; zone of inhibition at 10 µg/disc [10, 16]: 25 mm; zone of inhibition at 10 µg/disc ([10]; strain W677/R55, 10 Mcg. discs): 21 mm
2 | CN[C@@H]1[C@@H](O)[C@@H](O[C@H]2[C@H](N)[C@H](O)[C@H](N)[C@@H](O[C@H]3OC(CN)=CC[C@H]3N)[C@@H]2O)OC[C@]1(C)O [Mutamicin 4] | 0 | 24 | 26 | 26 | 24 | 16 | 17 | 19 | 19 | 19 | 19 | 28 | 20 | 14 | 11 | 14 | 25 | 21 | 25 | 24 | zone of inhibition at 10 µg/disc ([2]; strain 1118): 14 mm; zone of inhibition at 10 µg/disc ([2]; strain Grey): 13 mm; zone of inhibition at 10 µg/disc ([7]; strain Ad 22): 26 mm; zone of inhibition at 10 µg/disc ([7]; strain Georgetown 3020): 19 mm; zone of inhibition at 10 µg/disc ([7]; strain Georgetown 3694): 19 mm; zone of inhibition at 10 µg/disc [8]: 29 mm; zone of inhibition at 10 µg/disc ([9]; strain 27): 12 mm; zone of inhibition at 10 µg/disc ([9]; strain C): 12 mm; zone of inhibition at 10 µg/disc [10, 14]: 27 mm; zone of inhibition at 10 µg/disc ([10]; strain 589, 10 Mcg. discs): 26 mm; zone of inhibition at 10 µg/disc ([10]; strain Baker 2, 10 Mcg. discs): 24 mm; zone of inhibition at 10 µg/disc ([10]; strain JR66, 10 Mcg. discs): 18 mm; zone of inhibition at 10 µg/disc ([10]; strain JR88, 10 Mcg. discs): 16 mm; zone of inhibition at 10 µg/disc ([10]; strain JR90, 10 Mcg. discs): 22 mm; zone of inhibition at 10 µg/disc [10, 15]: 25 mm; zone of inhibition at 10 µg/disc [10, 16]: 17 mm; zone of inhibition at 10 µg/disc ([10]; strain W677/R55, 10 Mcg. discs): 13 mm
3 | CN[C@@H]1[C@@H](O)[C@@H](O[C@@H]2[C@@H](N)[C@H](O[C@H]3OC(CN)=CC[C@H]3N)[C@@H](N)C[C@H]2N)OC[C@]1(C)O [Mutamicin 5] | 9 | 21 | 23 | 25 | 23 | 0 | 0 | 11 | 10 | 10 | 0 | 16 | 12 | 0 | 0 | 13 | 22 | 19 | 20 | 21 | zone of inhibition at 10 µg/disc ([7]; strain Georgetown 3020): 0 mm; zone of inhibition at 10 µg/disc ([7]; strain Georgetown 3694): 0 mm; zone of inhibition at 10 µg/disc [8]: 28 mm; zone of inhibition at 10 µg/disc [10, 14]: 24 mm; zone of inhibition at 10 µg/disc [10]: 18 mm; zone of inhibition at 10 µg/disc ([10]; strain JR66, 10 Mcg. discs): 0 mm; zone of inhibition at 10 µg/disc ([10]; strain JR88, 10 Mcg. discs): 0 mm; zone of inhibition at 10 µg/disc ([10]; strain JR90, 10 Mcg. discs): 0 mm; zone of inhibition at 10 µg/disc [10, 15]: 22 mm; zone of inhibition at 10 µg/disc [10, 16]: 0 mm; zone of inhibition at 10 µg/disc ([10]; strain W677/R55, 10 Mcg. discs): 10 mm
4 | NC[C@H]1O[C@H](O[C@H]2[C@H](O)[C@@H](O[C@H]3O[C@H](CO)[C@@H](O)[C@H](N)[C@H]3O)[C@H](N)C[C@@H]2N)[C@H](O)[C@@H](O)[C@@H]1O [kanamycin] |  |  |  |  |  |  |  |  |  |  |  |  |  |  |  |  |  |  |  |  | activity against resistant Providence [11]: sensitive; activity against resistant adenylylating strains [12]: resistant
5 | NC[C@H]1O[C@H](O[C@H]2[C@H](O)[C@@H](O[C@H]3O[C@H](CO)[C@@H](O)[C@H](N)[C@H]3O)[C@H](N)C[C@@H]2N)[C@H](N)C[C@@H]1O [tobramycin] |  |  |  |  |  |  |  |  |  |  |  |  |  |  |  |  |  |  |  |  | activity against strains containing adenylylating R factors [13]: resistant; activity against resistant Providence [11]: resistant; activity against resistant adenylylating strains [12]: resistant
